In ChEMBL document CHEMBL4387741, “Optimization of novel reversible Bruton's tyrosine kinase inhibitors identified using Tethering-fragment-based screens” (Bioorg Med Chem, 2019) one finds inhibition and AUC(0-inf) data, which are given here for 2 compounds.

For series [1], the system named is Tyrosine-protein kinase ABL1 (Homo sapiens), P00519 [F317I]. As to the kind of experiment: Inhibition of human non-phosphorylated ABL1 F317I mutant (S229 to K512 residues) expressed in mammalian expression system at 10 uM by Kinomescan method relative to control.
For series [2], the target named is Casein kinase II subunit alpha' (Homo sapiens) (UniProt P19784). As to the kind of experiment: Inhibition of wild-type human full length CSNK2A2 (M1 to R350 residues) expressed in mammalian expression system at 10 uM by Kinomescan method relative to control.
Series [3] concerns the target Tyrosine-protein kinase Fes/Fps (Homo sapiens) (UniProt P07332). As to the kind of experiment: Inhibition of wild-type human partial length FES (I527 to R822 residues) expressed in bacterial expression system at 10 uM by Kinomescan method relative to control.
Series [4] concerns the target Fibroblast growth factor receptor 4 (Homo sapiens) (UniProt P22455). As to the kind of experiment: Inhibition of wild-type human partial length FGFR4 (G402 to E713 residues) expressed in bacterial expression system at 10 uM by Kinomescan method relative to control.
The target in series [5] is G protein-coupled receptor kinase 4 (Homo sapiens) (UniProt P32298). As to the kind of experiment: Inhibition of wild-type human full length GRK4 (M1 to C578 residues) expressed in bacterial expression system at 10 uM by Kinomescan method relative to control.
Series [6] deals with Mitogen-activated protein kinase kinase kinase 2 (Homo sapiens) (UniProt Q9Y2U5). The series is described as follows: Inhibition of wild-type human partial length MAP3K2 (S315 to H619 residues) expressed in mammalian expression system at 10 uM by Kinomescan method relative to control.
Series [7] has as its target MAP/microtubule affinity-regulating kinase 4 (Homo sapiens) (UniProt Q96L34). As to the kind of experiment: Inhibition of wild-type human partial length MARK4 (K29 to G340 residues) expressed in bacterial expression system at 10 uM by Kinomescan method relative to control.
Series [8] concerns the target Mitogen-activated protein kinase kinase kinase 9 (Homo sapiens) (UniProt P80192). As to the kind of experiment: Inhibition of wild-type human partial length MLK1 (V88 to W426 residues) expressed in bacterial expression system at 10 uM by Kinomescan method relative to control.
Series [9] addresses Serine/threonine-protein kinase NLK (Homo sapiens) (UniProt Q9UBE8). The series is described as follows: Inhibition of wild-type human full length NLK (M13 to E527 residues) expressed in bacterial expression system at 10 uM by Kinomescan method relative to control.
For series [10], the system named is Phosphatidylinositol 4,5-bisphosphate 3-kinase catalytic subunit alpha isoform (Homo sapiens), P42336 [E542K]. The series is described as follows: Inhibition of human partial length PIK3CA E542K mutant (R108 to N1068 residues) expressed in mammalian expression system at 10 uM by Kinomescan method relative to control.
Series [11] addresses Protein kinase C theta type (Homo sapiens) (UniProt Q04759). As to the kind of experiment: Inhibition of wild-type human partial length PRKCQ (L350 to S706 residues) expressed in bacterial expression system at 10 uM by Kinomescan method relative to control.
Series [12] has as its target Ribosomal protein S6 kinase alpha-2 (Homo sapiens) (UniProt Q15349). The series is described as follows: Inhibition of wild-type human partial length C-terminal RSK3 kinase domain 2 (V403 to K700 residues) expressed in bacterial expression system at 10 uM by Kinomescan method relative to control.
Series [13] has as its system Tyrosine-protein kinase ABL1 (Homo sapiens), P00519 [F317I]. The series is described as follows: Inhibition of human phosphorylated ABL1 F317I mutant (S229 to K512 residues) expressed in mammalian expression system at 1 uM by Kinomescan method relative to control.
Series [14] concerns the target Serine/threonine-protein kinase Chk1 (Homo sapiens) (UniProt O14757). As to the kind of experiment: Inhibition of wild-type human partial length CHEK1 (M1 to G289 residues) expressed in bacterial expression system at 1 uM by Kinomescan method relative to control.
The target in series [15] is Death-associated protein kinase 1 (Homo sapiens) (UniProt P53355). As to the kind of experiment: Inhibition of wild-type human partial length DAPK1 (M1 to F296 residues) expressed in bacterial expression system at 1 uM by Kinomescan method relative to control.
Series [16] addresses Serine/threonine-protein kinase 17B (Homo sapiens) (UniProt O94768). As to the kind of experiment: Inhibition of wild-type human full length DRAK2 (M1 to C372 residues) expressed in bacterial expression system at 1 uM by Kinomescan method relative to control.
The subject of series [17] is Epidermal growth factor receptor (Homo sapiens), P00533 [UNDEFINED MUTATION]. The series is described as follows: Inhibition of human partial length EGFR S752-I759del mutant expressed in bacterial expression system at 1 uM by Kinomescan method relative to control.
Series [18] concerns the target Ephrin type-A receptor 1 (Homo sapiens) (UniProt P21709). As to the kind of experiment: Inhibition of wild-type human partial length EPHA1 (V588 to I913 residues) expressed in bacterial expression system at 1 uM by Kinomescan method relative to control.
The target of series [19] is Mitogen-activated protein kinase 7 (Homo sapiens) (UniProt Q13164). As to the kind of experiment: Inhibition of wild-type human partial length ERK5 (M1 to A409 residues) expressed in bacterial expression system at 1 uM by Kinomescan method relative to control.
Series [20] has as its target Receptor-type tyrosine-protein kinase FLT3 (Homo sapiens) (UniProt P36888). As to the kind of experiment: Inhibition of wild-type human partial length autoinhibited FLT3 (H564 to Y969 residues) expressed in mammalian expression system at 1 uM by Kinomescan method relative to control.
Series [21] addresses Rhodopsin kinase GRK1 (Homo sapiens) (UniProt Q15835). As to the kind of experiment: Inhibition of wild-type human full length GRK1 (M1 to S563 residues) expressed in mammalian expression system at 1 uM by Kinomescan method relative to control.
For series [22], the target named is Muscle, skeletal receptor tyrosine-protein kinase (Homo sapiens) (UniProt O15146). The series is described as follows: Inhibition of wild-type human partial length MUSK (M553 to V869 residues) expressed in bacterial expression system at 1 uM by Kinomescan method relative to control.
Series [23] concerns the target Calcium-dependent protein kinase 1 (Plasmodium falciparum) (UniProt P62344). The series is described as follows: Inhibition of wild-type Plasmodium falciparum full length CDPK1 (M1 to S524 residues) expressed in mammalian expression system at 1 uM by Kinomescan method relative to control.
Series [24] concerns the target Ribosomal protein S6 kinase alpha-4 (Homo sapiens) (UniProt O75676). The series is described as follows: Inhibition of wild-type human partial length N-terminal RPS6KA4 kinase domain 1 expressed in bacterial expression system at 1 uM by Kinomescan method relative to control.
For series [25], the target named is Serine/threonine-protein kinase tousled-like 1 (Homo sapiens) (UniProt Q9UKI8). The series is described as follows: Inhibition of wild-type human partial length TLK1 (K447 to A754 residues) expressed in bacterial expression system at 1 uM by Kinomescan method relative to control.
The target of series [26] is Serine/threonine-protein kinase 32A (Homo sapiens) (UniProt Q8WU08). The series is described as follows: Inhibition of wild-type human full length YANK1 (M1 to L396 residues) expressed in mammalian expression system at 1 uM by Kinomescan method relative to control.
For series [27], the target named is Tyrosine-protein kinase ZAP-70 (Homo sapiens) (UniProt P43403). The series is described as follows: Inhibition of wild-type human partial length ZAP70 (D20 to G299 residues) expressed in mammalian expression system at 1 uM by Kinomescan method relative to control.
Series [28] can be described thus: AUC (infinity) in po dosed Sprague-Dawley rat using amorphous solid form of compound. Format: ADME, organism-based. The arrangement: route oral, time infinity. Conditions: in vivo.

Turning to `O=C(Nc1cccc([C@H]2CCCN(c3ncnc4[nH]ccc34)C2)c1)Nc1ccccc1N1CCCC1`, the inhibition came to 100% in series [1]; 91% in series [2]; 99% in [3]; 96% in [4]; 7.4% in series [5]; 27% in series [6]. Further, the inhibition in series [7] worked out at 87%; in series [8], 59%; in [9] it was 96%; in [10], 81%; in series [11], 100%; in series [12] it was 66%.
In the case of `O=C(Nc1cccc([C@@H]2CN(c3ncnc4[nH]ccc34)CCN2CCO)c1)Nc1c(F)cccc1N1CCCC1`, the inhibition in series [13] was found to be 100%; in series [14], 99%; in series [15], 5.3%; in [16], 73%; in [17] it was 100%; in [18], 100%. Further, the inhibition came out at 100% in [19]; 68% in series [20]; 78% in series [21]; 100% in series [22]; 71% in series [23]; 94% in series [24]. Besides, the inhibition amounted to 100% in series [25], 100% in [26] and 80% in series [27]. This compound also returned an AUC(0-inf) in [28] of 1890 ng·h/mL.

By inhibition is commonly meant the drop in the measured response relative to a control, in per cent. What is called AUC(0-inf) is total exposure, with the tail of the curve extrapolated. Low readings indicate low exposure, high ones high exposure.
